Data from patent US5066489A (Cetus Corporation, priority 1990, dated 1991).

What was measured:
[1] = DTIC pharmacokinetics in patients (first two cycles, 12 patients); assay type: in vivo, human; conditions: effect of IL-2; first two cycles in 12 patients
Protocol: (§1) For the First Cycle--Patients were admitted to the hospital on a Sunday evening for a Hickman catheter placement on the succeeding Monday. On Day 1 (Tuesday), DTIC was administered by continuous 24 hour infusion at a dose of 1.0 gm/m^2 intravenously. Pharmacokinetic studies were performed on Days 1 and 2.
DTIC pharmokinetics were performed on the first two cycles in 12 patients.

[2] = cited from earlier work
[3] = system: metastatic melanoma; conditions: cited from earlier work
[4] = Phase I-II study of IL-2 plus DTIC in melanoma patients: toxicity; assay type: in vivo, human; conditions: DTIC 1.0 gm/m^2 24 h infusion
Protocol: Patients, between 18 to 70 years of age, were admitted for three, separate Phase I-II studies. Each patient had to meet the following criteria for entering the study:
1. Dose and Schedule--Twenty patients received three cycles of Interleukin-2 in combination with DTIC. Each cycle was 28 days in duration. All drugs were administered by hospital staff either while in-patient or in the out-patient clinic. Patients received 1.0 gm/m^2 of DTIC as an IV continuous infusion over 24 hours every 4 weeks.
as §1
The dose schedule was identical to that given for cycle two.

Structure (SMILES) | peak plasma levels [1] | hematologic and GI toxicities ([2]; DTIC dose regimen) | acute toxicity ([2]; five-day continuous infusions) | antitumor schedule dependency ([3]; DTIC dose regimens) | single agent response rate ([3]; Roth and Kirkwood (1987)) | most promising response rate (%) observed alone ([3]; complete plus partial responses, treatment of melanoma, Roth (DTIC), Rosenberg et al 1987 (IL-2)) | dose responses ([3]; five-day continuous infusions) | responsiveness of visceral metastases (gastrointestinal tract, liver, brain) ([3]; versus soft tissue disease) | dosage adjustments for nausea/vomiting or for myelosuppression [4] | mild nausea and vomiting ([4]; of the courses)
NC(=O)c1[nH]cnc1N [AIC, 5-aminoimidazole 4-carboxamide] | not altered by IL-2 |  |  |  |  |  |  |  |  | 
CN(C)N=Nc1[nH]cnc1C(N)=O [DTIC, dimethyl-triazeno-imidazole-carboxmide] | not altered by IL-2 | vary with the DTIC dose regimen used | least acute toxicity | has not been observed | 24% | approximately 24% | equivalent dose responses | relatively less responsive than soft tissue disease | required no dosage adjustments | 96%
